Assay results as given in US8729089B2 (Gilead Sciences, Inc., priority 2006, dated 2014).

How the values were obtained:
[1] = test system: HCV replicon in human hepatoma Huh-7 cell line; test: Anti-HCV replicon assay (EC50, luciferase); assay type: cell-based; conditions: Hepatitis C virus, Huh-7, 72 h
Experimental: (§1) The anti-HCV activity of the pyrido[3,2-d]pyrimidine derivatives of this invention was tested in a human hepatoma Huh-7 cell line harboring a HCV replicon. The assay comprised the following steps:
(§2) Step 1: Compound Preparation and Serial Dilution
(§3) • 1. for water soluble pyrido[3,2-d]pyrimidine derivatives, a volume of 500 μL of solution in cell media (DMEM, 10% FBS, P/S, L-Glutamine) was prepared with a concentration being twice the concentration of the starting final serial dilution concentration. A volume of 150 μL of the solution was added to the pre-specified wells in column 1 of a 96-well cell culture plate (PerkinElmer, white plate, cat. #6005181, for EC50 assay; black plate, cat. #6005182 for CC50 assay). The rest of the plate, columns 2-12, was filled with 100 μL of cell media. The plate was then placed on a Precision 2000 Workstation to start the serial dilution. Compounds were diluted three times each step from column 1 to column 10. Column 11 was used as a blank control (no compound added). • 2. for pyrido[3,2-d]pyrimidine derivatives requiring DMSO to dissolve, serial dilution is performed in 50% DMSO in a 384-well plate. A solution containing a compound at 100-fold concentration of the starting final serial dilution concentration was prepared in 50% DMSO and added to the pre-specified wells in column 1 of a polypropylene 384-well plate. The plate was then placed on a Precision 2000 Workstation to start the serial dilution. After the serial dilution, a volume of 2 μL of the solution was transferred from the 384-well plate to a 96-well cell culture plate containing 100 μL of cell media on a Biomek FX Workstation. The DMSO concentration in the final assay condition was 0.5% after cells are added to the plate and the total volume in each well is brought to 200 μL.
(§4) Step 2: to each well of the serial dilution plate prepared above, 100 μL of cell media containing 6000 suspended Huh-7 HCV replicon cells was added with a Multidrop workstation. The plates were incubated for 3 days at 37° C. with 5% CO2.
(§5) • a) for the EC50 assay, the media in a 96-well cell culture plate was aspirated with a Biotek EL405 plate-washer. A volume of 200 μL of a solution containing a 1:1 mixture of cell-lysis buffer (Promega, Luciferase Cell Culture Lysis 5× Reagent, cat. #E1531) and luciferase substrate solution (Promega, Luciferase Assay, cat.#E4550) was added to each well of the plate with Multidrop. The plate was incubated for 30 minutes at room temperature before the luminescence signal was measured with a TopCount plate-reader. • b) for the CC50 assay, a volume of 100 μL of pre-mixed CellTiter-Glo (Promega, cat.#G7572) solution is added directly to the cell culture in each well of the plate and the luminescence signal is measured with a TopCount plate-reader after 10 minutes of incubation at room temperature.

[2] = CC50 assay (CellTiter-Glo) in Huh-7 HCV replicon cells; assay type: cell-based, human; conditions: human, 3 days incubation, CellTiter-Glo readout
Experimental: as §1, §2, §3, §4, §5

Compound	EC50 [1] [µM]	CC50 at 3 days [2] [µM]
CC(C)Nc1nc(Nc2ccc(F)cc2)nc2ccc(-c3ccc(F)cc3)nc12 [Example 49, 6-(4-Fluoro-phenyl)-N4-isopropyl-N2-(4-fluoro-phenyl)-pyrido[3,2-d]pyrimidine-2,4-diamine]	0.25 to 2	> 25
CC(C)Nc1nc(Nc2ccccc2)nc2ccc(-c3ccc(F)cc3)nc12 [Example 50, 6-(4-Fluoro-phenyl)-N4-isopropyl-N2-phenyl-pyrido[3,2-d]pyrimidine-2,4-diamine]	0.25 to 2	> 25
CN(C)c1nc(NCc2ccc(F)cc2)nc2ccc(-c3ccc(F)cc3)nc12 [Example 51, 6-(4-Fluoro-phenyl)-N4-(N,N-dimethyl)-N2-(4-fluoro-benzyl)-pyrido[3,2-d]pyrimidine-2,4-diamine]	0.25 to 2	> 25
Cc1ccc(Nc2nc(NC(C)C)c3nc(-c4ccc(F)cc4)ccc3n2)nn1 [Example 52, 6-(4-Fluoro-phenyl)-N4-isopropyl-N2-(6-methyl-pyridazin-3-yl)-pyrido[3,2-d]pyrimidine-2,4-diamine]	0.25 to 2	5 to 25
CC(C)Nc1nc(NCc2ccccn2)nc2ccc(-c3ccc(F)cc3)nc12 [Example 53, 6-(4-Fluoro-phenyl)-N4-isopropyl-N2-pyridin-2-ylmethyl-pyrido[3,2-d]pyrimidine-2,4-diamine]	0.1 to 0.25	5 to 25
CC(C)Nc1nc(NCc2cccnc2)nc2ccc(-c3ccc(F)cc3)nc12 [Example 54, 6-(4-Fluoro-phenyl)-N4-isopropyl-N2-pyridin-3-ylmethyl-pyrido[3,2-d]pyrimidine-2,4-diamine]	0.1 to 0.25	5 to 25
CC(C)Nc1nc(NCC(F)(F)F)nc2ccc(-c3ccc(F)cc3)nc12 [Example 55, 6-(4-Fluoro-phenyl)-N4-isopropyl-N2-(2,2,2-trifluoro-ethyl)-pyrido[3,2-d]pyrimidine-2,4-diamine]	< 0.1	5 to 25
CC(C)Nc1nc(NCCN2CCOCC2)nc2ccc(-c3ccc(F)cc3)nc12 [Example 56, 6-(4-Fluoro-phenyl)-N4-isopropyl-N2-(2-morpholin-4-yl-ethyl)-pyrido[3,2-d]pyrimidine-2,4-diamine]	0.25 to 2	5 to 25
CC(C)Nc1nc(NCC(F)F)nc2ccc(-c3ccc(F)cc3)nc12 [Example 57, N2-(2,2-Difluoro-ethyl)-6-(4-fluoro-phenyl)-N4-isopropyl-pyrido[3,2-d]pyrimidine-2,4-diamine]	0.25 to 2	< 5
COCCNc1nc(NC(C)C)c2nc(-c3ccc(F)cc3)ccc2n1 [Example 58, 6-(4-Fluoro-phenyl)-N4-isopropyl-N2-(2-methoxy-ethyl)-pyrido[3,2-d]pyrimidine-2,4-diamine]	0.25 to 2	< 5
CCN(CC)c1nc(NCc2ccc(S(N)(=O)=O)cc2)nc2ccc(-c3ccc(F)cc3)nc12 [Example 59, 4-{[4-Diethylamino-6-(4-fluoro-phenyl)-pyrido[3,2-d]pyrimidin-2-ylamino]-methyl}-benzenesulfonamide]	< 0.1	5 to 25
Fc1ccc(-c2ccc3nc(NCC(F)(F)F)nc(NCC(F)(F)F)c3n2)cc1 [Example 60, 6-(4-Fluoro-phenyl)-2,4-bis(2,2,2-trifluoro-ethylamino)-pyrido[3,2-d]pyrimidine]	< 0.1	> 25
CCOc1nc(NCc2ccc(F)cc2)nc2ccc(-c3cnc(N)cn3)nc12 [Example 62, [6-(5-Amino-pyrazin-2-yl)-4-ethoxy-pyrido[3,2-d]pyrimidin-2-yl]-(4-fluoro-benzyl)-amine]	< 0.1	> 25
CCOc1nc(NCc2ccc(F)cc2)nc2ccc(-c3ccc(C(=O)NCCN(C)C)cc3)nc12 [Example 63, N-(2-Dimethylamino-ethyl)-4-[4-ethoxy-2-(4-fluoro-benzylamino)-pyrido[3,2-d]pyrimidin-6-yl]-benzamide]	< 0.1	< 5
CCOc1nc(NCc2ccc(F)cc2)nc2ccc(-c3ccc(F)c(Cl)c3)nc12 [Example 64, [6-(3-Chloro-4-fluoro-phenyl)-4-ethoxy-pyrido[3,2-d]pyrimidin-2-yl]-(4-fluoro-benzyl)-amine]	< 0.1	5 to 25
CCOc1nc(NCc2ccc(F)cc2)nc2ccc(-c3ccc(C(=O)NC4CC4)cc3)nc12 [Example 65, N-Cyclopropyl-4-[4-ethoxy-2-(4-fluoro-benzylamino)-pyrido[3,2-d]pyrimidin-6-yl]-benzamide]	< 0.1	> 25
CCOc1nc(NCc2ccc(F)cc2)nc2ccc(-c3cccc(NS(C)(=O)=O)c3)nc12 [Example 66, N-{3-[4-Ethoxy-2-(4-fluoro-benzylamino)-pyrido[3,2-d]pyrimidin-6-yl]-phenyl}-methanesulfonamide]	< 0.1	< 5
CCOc1nc(NCc2ccc(F)cc2)nc2ccc(-c3ccc(NC(=O)C4CC4)cc3)nc12 [Example 67, Cyclopropanecarboxylic acid {4-[4-ethoxy-2-(4-fluoro-benzylamino)-pyrido[3,2-d]pyrimidin-6-yl]-phenyl}-amide]	< 0.1	5 to 25
CCOc1nc(NCc2ccc(F)cc2)nc2ccc(-c3ccc(F)c(S(N)(=O)=O)c3)nc12 [Example 68, 5-[4-Ethoxy-2-(4-fluoro-benzylamino)-pyrido[3,2-d]pyrimidin-6-yl]-2-fluoro-benzenesulfonamide]	< 0.1	5 to 25
CCOc1nc(NCc2ccc(F)cc2)nc2ccc(-c3ccc(NC(=O)CO)cc3)nc12 [Example 69, N-{4-[4-Ethoxy-2-(4-fluoro-benzylamino)-pyrido[3,2-d]pyrimidin-6-yl]-phenyl}-2-hydroxy-acetamide]	< 0.1	> 25
CCOc1nc(NCc2ccc(F)cc2)nc2ccc(-c3ccc(NC(=O)CN)cc3)nc12 [Example 70, 2-Amino-N-{4-[4-ethoxy-2-(4-fluoro-benzylamino)-pyrido[3,2-d]pyrimidin-6-yl]-phenyl}-acetamide]	< 0.1	< 5
CCOc1nc(NCc2ccc(F)cc2)nc2ccc(-c3ccc(NC(=O)NCCN4CCOCC4)cc3)nc12 [Example 71, 1-{4-[4-Ethoxy-2-(4-fluoro-benzylamino)-pyrido[3,2-d]pyrimidin-6-yl]-phenyl}-3-(2-morpholin-4-yl-ethyl)-urea]	< 0.1	< 5
CCOc1nc(NCc2ccc(F)cc2)nc2ccc(-c3ccc(NC(=O)N4CCOCC4)cc3)nc12 [Example 72, Morpholine-4-carboxylic acid {4-[4-ethoxy-2-(4-fluoro-benzylamino)-pyrido[3,2-d]pyrimidin-6-yl]-phenyl}-amide]	< 0.1	5 to 25
CCOc1nc(NCc2ccc(F)cc2)nc2ccc(-c3ccc(NC(=O)N4CCCC4)cc3)nc12 [Example 73, Pyrrolidine-1-carboxylic acid {4-[4-ethoxy-2-(4-fluoro-benzylamino)-pyrido[3,2-d]pyrimidin-6-yl]-phenyl}-amide]	< 0.1	5 to 25
CCOc1nc(NCc2ccc(F)cc2)nc2ccc(-c3ccc(NC(=O)NC4CC4)cc3)nc12 [Example 74, 1-Cyclopropyl-3-{4-[4-ethoxy-2-(4-fluoro-benzylamino)-pyrido[3,2-d]pyrimidin-6-yl]-phenyl}-urea]	< 0.1	5 to 25
CCOc1nc(NCc2ccc(F)cc2)nc2ccc(-c3ccc(NC(N)=O)cc3)nc12 [Example 75, {4-[4-Ethoxy-2-(4-fluoro-benzylamino)-pyrido[3,2-d]pyrimidin-6-yl]-phenyl}-urea]	< 0.1	> 25
CCOc1nc(NCc2ccc(F)cc2)nc2ccc(-c3ccc(N4CC(O)CC4=O)cc3)nc12 (centres unmarked) [Example 76, 1-{4-[4-Ethoxy-2-(4-fluoro-benzylamino)-pyrido[3,2-d]pyrimidin-6-yl]-phenyl}-4-hydroxy-pyrrolidin-2-one]	< 0.1	5 to 25
CCOc1nc(NCc2ccc(F)cc2)nc2ccc(-c3ccc4[nH]ncc4c3)nc12 [Example 77, [4-Ethoxy-6-(1H-indazol-5-yl)-pyrido[3,2-d]pyrimidin-2-yl]-(4-fluoro-benzyl)-amine]	< 0.1	5 to 25
